Experimental data from US20220313656A1, “NEW CLASS OF ANTIBIOTICS HAVING LOW MIC-VALUES TOWARDS DIFFERENT STRAINS OF BACTERIA” (priority 2019, published 2022).

What was measured:
[1] = tested on: Staphylococcus aureus MRSA 43484; test: Murine superficial MRSA skin infection model, topical treatment; assay type: in vivo; settings: 2%, topical twice daily for 3 days, day 4, Balb/C mice
Procedure: This experiment is conducted to assess the effect of topical treatment of the compounds against MRSA. Compound S43 was evaluated for efficacy against Staphylococcus aureus MRSA 43484 in an murine skin infection model.
Treatment was performed twice daily for 3 days and sampling of skin biopsies was performed the day after last treatment. Treatment with Fucidic acid was included as a positive control and treatment with vehicle was included as a negative control.
48 Balb/C female mice—18-22 g—Taconic, Denmark, Staphylococcus aureus MRSA43484, Test compound A at 1 and 2% formulations, Test compound B at 2% formulation, Fucidin, 0.9% saline (sterile, SSI), 0.9% saline/Triton-x (sterile, SSI), Sterile water (SSI), 5% Horse Blood Agar plates (SSI), MRSA Brilliance agar plates, Nurofen® Junior (20 mg/ml, Novartis), Zoletil mix/Torbugesic (SSI/QC-BIO), Dermal curette—Miltex 335710.
Approximately 1 hour before inoculation, mice were treated orally with 45 μl nurofen (20 mg ibuprofen/ml corresponding to approximately […]) as pain relief. The mice were anaesthetized with 0.15 ml s.c. of Zoletil mix. The fur was removed from a 2×3-cm area on the back of each mouse by use of an electric shaver. Next, a razor was used to remove all the hair and hereafter the outer most layer of the skin was scraped off with a dermal curette to obtain a 1 cm^2 superficial skin lesion. 10 μl inoculum containing approximately 10^7 CFU was spread on the lesion. After the applied inoculum had dried, the mouse was placed in the cage and kept in a warming cabinet until fully awake.
Topical treatment of was initiated the day after inoculation, Day 1. Mice were treated twice daily (9 a.m and 3 p.m.) for three days. A volume of 50 μl was spread on the inoculated skin area.
Colony counts in the skin lesions were determined on day 1 (start of treatment) and day 4 (the day after completed treatment). The mice were sacrificed day 1 and 4 according to Table 1. The affected skin area was removed by a pair of scissors and tweezers, and collected in a tube for Dispomixer with 1 ml saline. The skin sample was homogenized in a Dispomixer. Each sample was serial diluted in saline/Triton-x and 20-μl spots were applied on MRSA Brillince agar plates. All agar plates were incubated 20-48 hrs at 35° C.

S. aureus CC398 = test: MIC, serial dilution method (CLSI); assay type: cell-based, Staphylococcus aureus; settings: Staphylococcus aureus, MRSA, 24 h; read-out: MIC
Method in brief: (§1)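 Each determination was run twice. Bacteria, diluted 1:100 in Müller Hinton broth, were exposed to compound for 24 hours at 37° C without agitation, and the lowest concentration free of visible growth was recorded.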

S. aureus USA300 = test: MIC, serial dilution method (CLSI); assay type: cell-based, Staphylococcus aureus; settings: Staphylococcus aureus, USA300, 24 h; read-out: MIC
Method in brief: as §1

Escherichia coli E24 = test: MIC, serial dilution method (CLSI); further: values in mg/L; assay type: cell-based; settings: E. coli E24, ESBL; duplicates a/b
Method in brief: as §1

Escherichia coli E4 = test: MIC, serial dilution method (CLSI); further: values in mg/L; assay type: cell-based; settings: E. coli E4, ESBL; duplicates a/b
Method in brief: as §1

Bacillus cereus = test: MIC, serial dilution method (CLSI); assay type: cell-based; settings: 24 h, read-out: MIC
Method in brief: as §1

Streptococcus equi = test: MIC, serial dilution method (CLSI); assay type: cell-based; settings: 24 h, read-out: MIC
Method in brief: as §1

Salmonella enteritidis = test: MIC, serial dilution method (CLSI); assay type: cell-based; settings: Salmonella enterica, ENTERITIDIS, 24 h; read-out: MIC
Method in brief: as §1

Listeria monocytogenes = test: MIC, serial dilution method (CLSI); assay type: cell-based; settings: 24 h, read-out: MIC
Method in brief: as §1

Escherichia coli E38 = test: MIC, serial dilution method (CLSI); further: values in mg/L; assay type: cell-based; settings: E. coli E38, ESBL; duplicates a/b
Method in brief: as §1

Escherichia coli ESBL28 = test: MIC, serial dilution method (CLSI); further: values in mg/L; assay type: cell-based; settings: E. coli ESBL28, Tetracycline resistant; duplicates a/b
Method in brief: as §1

Escherichia coli ESBL46 = test: MIC, serial dilution method (CLSI); further: values in mg/L; assay type: cell-based; settings: E. coli ESBL46, Tetracycline resistant; duplicates a/b
Method in brief: as §1

Escherichia coli ESBL19 = test: MIC, serial dilution method (CLSI); further: values in mg/L; assay type: cell-based; settings: E. coli ESBL19, Tetracycline resistant; duplicates a/b
Method in brief: as §1

Escherichia coli E6 = test: MIC, serial dilution method (CLSI); further: values in mg/L; assay type: cell-based; settings: E. coli E6, ESBL; duplicates a/b
Method in brief: as §1

Escherichia coli ESBL1 = test: MIC, serial dilution method (CLSI); further: values in mg/L; assay type: cell-based; settings: E. coli ESBL1, Tetracycline resistant; duplicates a/b
Method in brief: as §1

Escherichia coli ESBL10 = test: MIC, serial dilution method (CLSI); further: values in mg/L; assay type: cell-based; settings: E. coli ESBL10, Tetracycline resistant; duplicates a/b
Method in brief: as §1

Escherichia coli ESBL37 = test: MIC, serial dilution method (CLSI); further: values in mg/L; assay type: cell-based; settings: E. coli ESBL37, Tetracycline resistant; duplicates a/b
Method in brief: as §1

Escherichia coli E5 = test: MIC, serial dilution method (CLSI); further: values in mg/L; assay type: cell-based; settings: E. coli E5, ESBL; duplicates a/b
Method in brief: as §1

E. faecium = test: MIC, serial dilution method (CLSI); assay type: cell-based, Enterococcus faecium; settings: Enterococcus faecium, 24 h; read-out: MIC
Method in brief: as §1

E. faecalis = test: MIC, serial dilution method (CLSI); assay type: cell-based, Enterococcus faecalis; settings: Enterococcus faecalis, 24 h; read-out: MIC
Method in brief: as §1

[2] = tested on: Staphylococus pseudintermedius; test: MIC, serial dilution method (CLSI); assay type: cell-based, Staphylococcus pseudintermedius; settings: Staphylococcus pseudintermedius, 24 h; read-out: MIC
Method in brief: as §1

E. coli APEC O2 = test: MIC, serial dilution method (CLSI); assay type: cell-based, Escherichia coli; settings: Escherichia coli, APECO2, 24 h; read-out: MIC
Method in brief: as §1

IPEC-J2 MDR1 cells = test: Apical to basolateral transport across IPEC-J2 MDR1 cell monolayers; assay type: in vitro ADME
Procedure: To assess the permeability of the compounds, the apical to basolateral flux/permeability of different experimental compounds across monolayers of IPEC-J2 MDR1 cells seeded and cultured on Transwell supports was investigated.
The compounds were dissolved in ultra pure water (MilliQ) to a concentration of 1 mM and further diluted in HBSS supplemented with 0.05% BSA and 10 mM HEPES, pH 7.4 to a final concentration of 10 μM.
For transport experiments, IPEC-J2 cells were seeded onto to permeable supports (T12, Corning cci-3401) and cultured for 15-17 days. Culturemedium was changed every other day in both the apical and basolateral chamber. On the day of transport, the cells were equilibrated to ambient temperatures and the transepithelial electrical resistance (TEER) was measured across the cell monolayers. Subsequently, the cell layers were washed twice with HBSS and the TEER was measured again. The transport experiment was started by replacing the HBSS in the apical chamber with HBSS solutions of the four experimental compounds. Over a period of two hours samples of 100 μL where taken from the basolateral chamber at t=15, 30, 45, 60, 90 and 120 minutes. All samples were stored at −20° C. until analysis by means of HPLC-MS. All four compounds were tested in triplicate. After the transport study was stopped, the cell layers were washed twice with HBSS and the TEER was measured.

[3] = tested on: Staphylococcus epidermidis; test: MIC and MBC determination; assay type: cell-based; settings: Multiresistant clinical isolate
Procedure: (§2) MBC-value defines the antibiotic activities by the lowest concentration of the compound needed to kill at least 99.9% of the bacteria, also known as minimum bactericidal concentration (MBC) value.
(§3) The MIC for each compound for each bacteria strain was determined by the serial dilution method following the CLSI guidelines (CLSI Clinical and Laboratory Standards Institute: Performance Standards for Antimicrobial Susceptibility Testing: […] M100-S25. Wayne, Pa., USA; 2015.) All compounds were diluted in autoclaved H2O and stored at 4° C. […] Bacterial inoculums were prepared by inoculating 9 ml of H2O with bacterial colonies from agar plate (Oxoid, Roskilde Denmark) supplemented with bovine blood to a final yield a final density of 10^8 colony forming unit (CFU)/mL using a Sensititre™ Nephelometer (Thermo Scientific, Roskilde, Denmark). These inoculums were each in diluted 1:100 in Müller Hinton (MH) broth (Sigma, Copenhagen, Denmark). From the diluted inoculums 100 μl was transferred to each well in a 96-well plate and mixed with the compound to be MIC determined. The plate was incubated for 24 hours at 37° C. (without shaking). The MIC value was determined as the lowest concentration in which no bacterial growth could be visually detected. All MIC determinations were done in duplicates. […] Since all derivatives are new, no control strains (with reference MIC values) were available.

Cutibacterium acnes = test: MIC and MBC determination; assay type: cell-based; settings: Multiresistant clinical isolate
Procedure: as §2, §3

Compound: CC(=O)O[C@H]1C[C@@]2(C)[C@@H](C[C@@H](O)[C@H]3[C@@]4(C)CC[C@@H](O)[C@@H](C)[C@@H]4CC[C@@]32C)/C1=C(\CCC=C(C)C)C(=O)O [fucidic acid, reference compound]
- reduction of the CFU levels compared to the vehicle control [1]: 1.5 logo

Compound: CN(C)CCCN1c2ccccc2Sc2ccc(Cl)cc21.Cl [Compound S1, 3-(2-chloro-10H-phenothiazin-10-yl)-N,N-dimethylpropan-1-amine hydrochloride, reference compound]
- MIC (S. aureus CC398): 32 µg/mL
- MIC (S. aureus USA300): 64 µg/mL
- MIC (Escherichia coli E24): 64/32
- MIC (Escherichia coli E4): 64/64
- MIC (Bacillus cereus): 64 µg/mL
- MIC (Streptococcus equi): 16 µg/mL
- MIC (Salmonella enteritidis): 64 µg/mL
- MIC (Listeria monocytogenes): 32 µg/mL
- MIC (Escherichia coli E38): 64/32
- MIC (Escherichia coli ESBL28): 32/32
- MIC (Escherichia coli ESBL46): 32/32
- MIC (Escherichia coli ESBL19): 32/32
- MIC (Escherichia coli E6): 32/32
- MIC (Escherichia coli ESBL1): 32/64
- MIC (Escherichia coli ESBL10): 64/64
- MIC (Escherichia coli ESBL37): 32/32
- MIC (Escherichia coli E5): 32/32
- MIC (E. faecium): 32 µg/mL
- MIC (E. faecalis): 64 µg/mL
- MIC [2]: 32 µg/mL
- MIC (E. coli APEC O2): 64 µg/mL

Compound: CSc1ccc2c(c1)N(CCC1CCCC[N+]1(C)CCC(C)C)c1ccccc1S2.[Br-] (stereo not drawn) [Compound S27, 1-isopentyl-1-methyl-2-(2-(2-(methylthio)-10H-phenothiazin-10-yl)ethyl)piperidin-1-ium bromide]
- MIC (S. aureus CC398): 2 µg/mL
- MIC (S. aureus USA300): 2 µg/mL
- MIC (Bacillus cereus): 4 µg/mL
- MIC (Streptococcus equi): 2 µg/mL
- MIC (Salmonella enteritidis): 128 µg/mL
- MIC (Listeria monocytogenes): 2 µg/mL
- MIC (E. faecium): 4 µg/mL
- MIC (E. faecalis): 4 µg/mL
- MIC [2]: 2 µg/mL
- MIC (E. coli APEC O2): 128 µg/mL
- permeability across IPEC-J2 MDR1 cell monolayers (IPEC-J2 MDR1 cells): low

Compound: CCCCCCCCCCCC[N+](C)(C)C(C)CN1c2ccccc2Sc2ccccc21.[Br-] (stereo not drawn) [Compound S18, N-(1-(10H-phenothiazin-10-yl)propan-2-yl)-N,N-dimethyldodecan-1-aminium bromide]
- MIC (S. aureus CC398): 0.25 µg/mL
- MIC (S. aureus USA300): 0.5 µg/mL
- MIC (Bacillus cereus): 0.25 µg/mL
- MIC (Streptococcus equi): 1 µg/mL
- MIC (Salmonella enteritidis): 64 µg/mL
- MIC (Listeria monocytogenes): 0.25 µg/mL
- MIC (E. faecium): 0.25 µg/mL
- MIC (E. faecalis): 0.5 µg/mL
- MBC [3]: 0.25 µg/mL
- MIC [3]: 0.25 µg/mL
- MBC (Cutibacterium acnes): 0.5 µg/mL
- MIC (Cutibacterium acnes): 0.5 µg/mL
- MIC [2]: 0.25 µg/mL
- MIC (E. coli APEC O2): 64 µg/mL

Compound: CC[N+]1(C)CCCCC1CCN1c2ccccc2Sc2ccc(SC)cc21.[Br-] (stereo not drawn) [Compound S25, 1-ethyl-1-methyl-2-(2-(2-(methylthio)-10H-phenothiazin-10-yl)ethyl)piperidin-1-ium bromide]
- MIC (S. aureus CC398): 4 µg/mL
- MIC (S. aureus USA300): 2 µg/mL
- MIC (Bacillus cereus): 2 µg/mL
- MIC (Streptococcus equi): 2 µg/mL
- MIC (Salmonella enteritidis): 256 µg/mL
- MIC (Listeria monocytogenes): 2 µg/mL
- MIC (E. faecium): 8 µg/mL
- MIC (E. faecalis): 8 µg/mL
- MIC [2]: 2 µg/mL
- MIC (E. coli APEC O2): 256 µg/mL
- permeability across IPEC-J2 MDR1 cell monolayers (IPEC-J2 MDR1 cells): low

Compound: CCCCC[N+]1(C)CCCCC1CCN1c2ccccc2Sc2ccc(SC)cc21.[Br-] (stereo not drawn) [Compound S28, 1-methyl-2-(2-(2-(methylthio)-10H-phenothiazin-10-yl)ethyl)-1-pentylpiperidin-1-ium bromide]
- MIC (S. aureus CC398): 2 µg/mL
- MIC (S. aureus USA300): 2 µg/mL
- MIC (Bacillus cereus): 2 µg/mL
- MIC (Streptococcus equi): 2 µg/mL
- MIC (Salmonella enteritidis): 64 µg/mL
- MIC (Listeria monocytogenes): 2 µg/mL
- MIC (E. faecium): 2 µg/mL
- MIC (E. faecalis): 4 µg/mL
- MIC [2]: 4 µg/mL
- MIC (E. coli APEC O2): 64 µg/mL
- permeability across IPEC-J2 MDR1 cell monolayers (IPEC-J2 MDR1 cells): low
